“And” between values parts separate entries of the source, which are not always exact repeats. Identical values can stand only once. Like-named read-outs stand apart in the source and are kept apart here.
Columns and labels:
[1] = test system: CT26.wt (colon carcinoma); assay: Effect of isomer 4 (9d) on tumour growth, CT26.wt (Example 10); format: in vivo; conditions: CT26.wt (high dose colon carcinoma); Balbc/cByl mice; 250 ng/mice i.p. days 6, 7 and 14
Procedure: (§1) The following assays were made in order to check the effect of isomer 4 (9d) on different tumours following methods and materials analogous to those used in examples 8 and 9, In all cases sterile physiologic saline (Grifols, Barcelona, Spain) was used as placebo. Isomer 4 (9d) was tested at the dose levels indicated in Table 13 on days 6, 7 and 14 after tumour inoculation. In all cases the vehicle was physiologic saline and the treatments were given by intraperitoneal route. The volume inoculated was 0.2 mL/animal.

[2] = test system: CT26.CL25 (colon carcinoma); assay: Effect of isomer 4 (9d) on tumour growth, CT26.CL25 (Example 10); format: in vivo; conditions: CT26.CL25 (Low dose colon carcinoma); Balbc/cByl mice; 250 ng/mice i.p. days 6, 7 and 14
Procedure: as §1

ASB XIV (lung carcinoma) = assay: Effect of isomer 4 (9d) on tumour growth, ASB XIV (Example 10); format: in vivo; conditions: Balb/cAnNCrI mice, 260 ng/mice i.p. days 6, 7 and 14
Procedure: as §1

Lewis (lung carcinoma) = assay: Effect of isomer 4 (9d) on tumour growth, Lewis (Example 10); format: in vivo; conditions: Lewis (low dose lung carcinoma); C57BL/6NCrI mice; 260 ng/mice i.p. days 6, 7 and 14
Procedure: as §1

P-815 (Mastocytoma) = assay: Effect of isomer 4 (9d) on tumour growth, P-815 (Example 10); format: in vivo; conditions: DBA/2NCrI mice, 250 ng/mice i.p. days 6, 7 and 14
Procedure: as §1

[3] = test system: KLN 205 cells (lung cell carcinoma); assay: Effect of 9d in combination with Cisplatin on tumour growth, KLN 205 (Example 11); format: in vivo, DBA/2 mice; conditions: for Tumour surface, overall values (Mean) / Tumour surface, overall values (Median) / Tumour volume, overall values (Mean) / Tumour volume, overall values (Median): 9d 250 ng, Cisplatin 65 μg i.p. days 3, 6, 10, 13, 17, 20
Procedure: This was carried out by measuring two perpendicular diameters (d1/d2) with a calliper. These measures were used to obtain both tumour surface and volume: […] Results were expressed as single values and/or as the mean±SD or median from each experimental group. This assay was made in order to check the effect on in vivo tumour growth in mice challenged with KLN 205 cells. Their effect was compared with the combination of Cisplatin plus 9d and/or placebo. KLN 205 is a lung cell carcinoma originated in DBA/2 mouse strain, and therefore syngeneic in mice with DBA/2 genetic background (Kaneko T and […]. Growth characteristics and drug responses of a murine lung carcinoma in vitro and in vivo. Cancer Res. 38: 2084-2090; 1978). KLN 205 cells (CLS, Eppelheim, Germany) were maintained in vitro by serial passages every 3-4 days. […] Louis, Mo., USA) by seeding 5×10^6 cells onto 75 cm^2 culture flasks. Subcultures were carried out by collecting detached cells after treatment with trypsin-EDTA (Sigma, St. Louis, Mo., USA). Tumour cells, collected from 48 hour cultures, were used as source of KLN 205 cells for the studies described below. […] Tumours were established by subcutaneous inoculation in the right hind flank. Mice (DBA/2) were inoculated with 0.2 mL containing 2×10^5 viable KLN 205 cells. The day of subcutaneous inoculation will be considered Day 0 of the test. A case-control study was performed with treated and control mice in order to determine whether differences between placebo, 9d, Cisplatin or 9d+Cisplatin were present. […] The t-test was chosen for being one of the better known parametrical tests.

healthy mice = format: in vivo; conditions: for WEIGHT LOSS: weight, MEAN / WEIGHT LOSS: weight, MEDIAN: n 5
Procedure: This assay was made in order to perform a preliminary study to address the toxic effect of Isomer 4 (9d) used at a high dose on healthy mice. Its eventual toxicity will be compared with placebo.
Isomer 4 (9d) at 0.7 mg/mL in sterile physiological saline.
The vehicle in which Isomer 4 was diluted was sterile physiological saline for injection (Grifols, Barcelona, Spain) and sterile distilled water for injection (Grifols, Barcelona, Spain)
The treatments were given i.p. or s.c.
Every mouse was observed daily during 10 days.
Three measures were performed:
3. Weight. This was measured and expressed in grammes.
4. Lethality. This was expressed as percentage of survival.
5. Toxicity. This was checked on alive mice for the following parameters and score criteria:
A case-control study was performed with treated and control mice in order to determine whether differences between Isomer 4 and administration of placebo were present. The U-test of Mann Withney was chosen for being one of the better known non-parametrical tests, anyway, results for this test are equivalent both to those of Wilcoxon's sum of ranges and Kruskal-Wallis two-groups test.

[4] = day 10 after tumour inoculation
[5] = day 13 after tumour inoculation
[6] = day 17 after tumour inoculation
[7] = day 20 after tumour inoculation
[8] = day 24 after tumour inoculation
[9] = day 27 after tumour inoculation
[10] = day 31 after tumour inoculation
[11] = day 34 after tumour inoculation
[12] = day 38 after tumour inoculation
[13] = Group A1, 1.25 mg i.p., C57BL/6NCrI, day 0 after the beginning of the treatment
[14] = Group A1, 1.25 mg i.p., C57BL/6NCrI, day 1 after the beginning of the treatment
[15] = Group A1, 1.25 mg i.p., C57BL/6NCrI, day 2 after the beginning of the treatment
[16] = Group A1, 1.25 mg i.p., C57BL/6NCrI, day 3 after the beginning of the treatment
[17] = Group A1, 1.25 mg i.p., C57BL/6NCrI, day 4 after the beginning of the treatment
[18] = Group A1, 1.25 mg i.p., C57BL/6NCrI, day 5 after the beginning of the treatment
[19] = Group A1, 1.25 mg i.p., C57BL/6NCrI, day 6 after the beginning of the treatment
[20] = Group A1, 1.25 mg i.p., C57BL/6NCrI, day 7 after the beginning of the treatment
[21] = Group A1, 1.25 mg i.p., C57BL/6NCrI, day 8 after the beginning of the treatment
[22] = Group A1, 1.25 mg i.p., C57BL/6NCrI, day 9 after the beginning of the treatment
[23] = Group A1, 1.25 mg i.p., C57BL/6NCrI, day 10 after the beginning of the treatment

Structure (SMILES): Br.N[C@]1(C[n+]2ccccc2)C[C@H](C(=O)O)NC1=O.[Br-] (single isomer, unassigned; isomer 4) [isomer 4, 3S,5R-1-(3-Amino-5-carboxy-2-oxopyrrolidin-3-ylmethyl)pyridinium bromide hidrobromide]
- Tumour growth inhibition? [1]: YES
- Tumour growth inhibition? [2]: YES
- Tumour growth inhibition? (ASB XIV (lung carcinoma); ASB XIV (high dose lung carcinoma)): YES
- Tumour growth inhibition? (ASB XIV (lung carcinoma); ASB XIV (low dose lung carcinoma)): YES
- Tumour growth inhibition? (Lewis (lung carcinoma)): YES
- Tumour growth inhibition? (P-815 (Mastocytoma)): YES
- Tumour surface, overall values (Mean) ([3]; day 0 after tumour inoculation): 0 mm^2
- Tumour surface, overall values (Median) ([3]; day 0 after tumour inoculation): 0 mm^2
- Tumour volume, overall values (Mean) ([3]; day 0 after tumour inoculation): 0 mm^3
- Tumour volume, overall values (Median) ([3]; day 0 after tumour inoculation): 0 mm^3
- Tumour surface, overall values (Mean) [3, 4]: 5.38 mm^2
- Tumour surface, overall values (Median) [3, 4]: 4 mm^2
- Tumour volume, overall values (Mean) [3, 4]: 8.81 mm^3
- Tumour volume, overall values (Median) [3, 4]: 4 mm^3
- Tumour surface, overall values (Mean) [3, 5]: 17.25 mm^2
- Tumour surface, overall values (Median) [3, 5]: 16 mm^2
- Tumour volume, overall values (Mean) [3, 5]: 43.38 mm^3
- Tumour volume, overall values (Median) [3, 5]: 32 mm^3
- Tumour surface, overall values (Mean) [3, 6]: 29.88 mm^2
- Tumour volume, overall values (Mean) [3, 6]: 94.56 mm^3
- Tumour surface, overall values (Mean) [3, 7]: 57.06 mm^2
- Tumour surface, overall values (Median) [3, 7]: 36 mm^2
- Tumour volume, overall values (Mean) [3, 7]: 246.03 mm^3
- Tumour volume, overall values (Median) [3, 7]: 108 mm^3
- Tumour surface, overall values (Mean) [3, 8]: 81.38 mm^2
- Tumour surface, overall values (Median) [3, 8]: 64 mm^2
- Tumour volume, overall values (Mean) [3, 8]: 393.25 mm^3
- Tumour volume, overall values (Median) [3, 8]: 256 mm^3
- Tumour surface, overall values (Mean) [3, 9]: 113.5 mm^2
- Tumour surface, overall values (Median) [3, 9]: 105.5 mm^2
- Tumour volume, overall values (Mean) [3, 9]: 611.75 mm^3
- Tumour volume, overall values (Median) [3, 9]: 446.75 mm^3
- Tumour surface, overall values (Mean) [3, 10]: 135.31 mm^2
- Tumour surface, overall values (Median) [3, 10]: 132.5 mm^2
- Tumour volume, overall values (Mean) [3, 10]: 777.53 mm^3
- Tumour volume, overall values (Median) [3, 10]: 628.75 mm^3
- Tumour surface, overall values (Mean) [3, 11]: 168.81 mm^2
- Tumour surface, overall values (Median) [3, 11]: 170.5 mm^2
- Tumour volume, overall values (Mean) [3, 11]: 1068.3 mm^3
- Tumour volume, overall values (Median) [3, 11]: 937.75 mm^3
- Tumour surface, overall values (Mean) [3, 12]: 214.44 mm^2
- Tumour surface, overall values (Median) [3, 12]: 227.5 mm^2
- Tumour volume, overall values (Mean) [3, 12]: 1504.7 mm^3
- Tumour volume, overall values (Median) [3, 12]: 1478.8 mm^3
- KLN 205 tumour growth vs. placebo, tendency in words ([3]; either in surface or volume, all days scored after day 31th, t-test): significant tendency
- Differences in KLN 205 tumour growth rate vs. placebo, in words ([3]; t-test, 250 ng i.p.): not differences
- Differences on weight between groups (Isomer 4 vs placebo), p (Mann-Whitney U test) (healthy mice; C57BL/6 mice, every day scored over 10 days): > 0.05
- WEIGHT LOSS: weight of each mouse (healthy mice; Group A1, 1.25 mg i.p., C57BL/6NCrI, individual animals 1-5, day 8 after the beginning of the treatment): 26 g (3×) and 20 g and 28 g
- WEIGHT LOSS: weight, MEAN (healthy mice; [13]): 26.4 g
- WEIGHT LOSS: weight, MEDIAN (healthy mice; [13]): 27 g
- WEIGHT LOSS: weight, MEAN (healthy mice; [14]): 25.4 g
- WEIGHT LOSS: weight, MEDIAN (healthy mice; [14]): 26 g
- WEIGHT LOSS: weight, MEAN (healthy mice; [15]): 25.4 g
- WEIGHT LOSS: weight, MEDIAN (healthy mice; [15]): 26 g
- WEIGHT LOSS: weight, MEAN (healthy mice; [16]): 26 g
- WEIGHT LOSS: weight, MEDIAN (healthy mice; [16]): 26 g
- WEIGHT LOSS: weight, MEAN (healthy mice; [17]): 25.8 g
- WEIGHT LOSS: weight, MEDIAN (healthy mice; [17]): 26 g
- WEIGHT LOSS: weight, MEAN (healthy mice; [18]): 24.8 g
- WEIGHT LOSS: weight, MEDIAN (healthy mice; [18]): 26 g
- WEIGHT LOSS: weight, MEAN (healthy mice; [19]): 25 g
- WEIGHT LOSS: weight, MEDIAN (healthy mice; [19]): 26 g
- WEIGHT LOSS: weight, MEAN (healthy mice; [20]): 25 g
- WEIGHT LOSS: weight, MEDIAN (healthy mice; [20]): 26 g
- WEIGHT LOSS: weight, MEAN (healthy mice; [21]): 25.2 g
- WEIGHT LOSS: weight, MEDIAN (healthy mice; [21]): 26 g
- WEIGHT LOSS: weight, MEAN (healthy mice; [22]): 25 g
- WEIGHT LOSS: weight, MEDIAN (healthy mice; [22]): 26 g
- WEIGHT LOSS: weight, MEAN (healthy mice; [23]): 24.8 g
- WEIGHT LOSS: weight, MEDIAN (healthy mice; [23]): 26 g
- Deaths or toxicity (systemic), in words (healthy mice; Group A1, dose exceeded 50,000-fold the total amount of the therapeutic dose): No deaths or toxicity were observed
- Local toxicity, in words (healthy mice; Group C1, dose exceeded 500-fold the normal concentration of the therapeutic dose): Local toxicity was neither observed
- Tolerance by mice, in words (healthy mice; doses that greatly exceed its therapeutic range): well tolerated

— patent US8835466B2, “Synthesis and uses of pyroglutamic acid derivatives” (Prodimed, S.A., priority 2006, dated 2014)
